From patent US20060002946A1, “Targeted immunogens” (Aventis Pasteur, Inc., priority 2003, published 2006)
Entries after “also recorded” stand apart in the source; their conditions may differ.

What was measured:
[1] = system: Splenocytes from C57BL/6 mice; assay: In vitro analysis of NP peptide presentation, IFN-γ ELISPOT (FIG. 12); type: cell-based, mouse; conditions: 10 ug/ml pulse 1 hour; for duration of ability of pulsed cells to stimulate T cells: incubation up to 120 hours (limit of the assay)
Description: FIG. 12. In vitro analysis of NP peptide presentation. Splenocytes from C57BL/6 mice were pulsed with 10 ug/ml of the indicated peptides for 1 hour at 37C., washed, and incubated for 0, 24, 72, or 120 hours. Cells were then tested by ELISPOT for their ability to induce IFN-γ secretion from NP-specific T cells.
FIG. 12 illustrates a similar analysis performed using the NP system.

RMA cells = assay: Sensitization of RMA target cells for CTL lysis, chromium release assay; type: cell-based, mouse; conditions: 10 pg/ml peptide, 1 hour at 37° C., 4-hour chromium release, T cells of influenza-immunized C57BL/6 mice
Description: (§1) FIG. 1. In vitro sensitization of target cells for peptide-specific lysis by hPER1 conjugates.
To determine whether hPER1-CTL conjugates can form CTL target structures, ^51Cr-labeled RMA cells were pulsed with 10^−11 g/ml NP peptide ([…]) or hPER1-NP peptide ([…]), or were left untreated (no peptide) and incubated for 1 hour at 37° C. The cells were then washed and tested for CTL recognition in a standard 4-hour chromium release assay, using T cells obtained from the spleens of C57BL/6 mice immunized with influenza virus.

C57BL/6 mice [2] = assay: i.v. injection of peptide-pulsed dendritic cells, CTL chromium release (FIG. 4); type: in vivo, mouse; conditions: 5×10^5 pulsed DCs i.v., one week post immunization, SIINFEKL-pulsed targets
Description: FIG. 4. CTL responses in C57BL/6 nice following intravenous (i.v.) injection of peptide-pulsed DCs. Mice were immunized i.v. with 5×10^5 bone marrow-derived DCs pulsed with the indicated peptides.
Consequently, we tested the ability of transcytosis peptides to generate CTL responses in the context of a DC-based vaccine. Murine bone marrow derived dendritic cells were matured in vitro, pulsed with either […] alone, conjugated with either Tat or hPER1 with or without linkers, and were injected intravenously in the tail vein of C57BL/6 mice. One week post immunization, the splenocytes from vaccinated animals were tested for CTL activity following in vitro restimulation.

A2/Kb mice = assay: Immunization with gp100-154 peptides plus or minus helper CD4 peptide, CTL assay (FIGS. 6, 8, 13); type: in vivo, mouse; conditions: for CTL responses / cytotoxicity at three weeks and three months: s.c. immunization, FIG. 13
Description: Results shown represent the mean value of four individual mice for each group.
FIG. 8. The presence of a helper CD4 hepatitis B peptide is essential for the generation of CTL responses against a CD8 peptide. A2/Kb mice were inoculated intranasally with hPER1-FVYVW-154 peptide at different doses from 50 nmoles to 1 nmoles with or without helper peptide.
FIG. 13. Induction of long-term immunity following hPER1-FVYVW-gp100-154 peptide immunization. CTL responses in A2/Kb mice following 3 weeks or 3 months subcutaneous immunization with gp100-154 epitope alone or in association with hPER1-FVYVW. […] Short-term (3 weeks) as well as long-term (3 months) T cell responses are observed in 4/4 or ¾ mice respectively following hPEr1-FVYVW-154 immunization.
(§2) In carrying out the experiments described in FIGS. 6 and 13, mice were immunized by the specified route with 50 nmol (if not specified otherwise) of peptide plus 50 nmol of a hepatitis B epitope in mice to serve as a helper CD4 peptide. Three weeks after the first injection a boost was carried out with the same regimen, and three weeks after that, spleens were harvested and homogenized to a single suspension. Whole splenocytes were placed into culture with 0.5 ug/ml of the epitope peptide and incubated at 37 degrees for five days. A CTL assay was conducted on day five of culture after Ficoll treatment to purify live cells. Controls that were used are matched Kb or A2 binding peptides.

mice = assay: Summary of in vivo Immunogenicity Studies (Table IV); design: species or system mouse
[3] = system: HLA-A2/Kb transgenic mice; assay: s.c. peptide immunization, gp100-154 CTL chromium release (FIG. 5); conditions: 50 ug s.c., boosts days 21 and 42, day 63
Description: CTL responses in HLA-A2/Kb transgenic mice following subcutaneous (s.c.) injection of peptide. Mice were immunized s.c. with 50 ug of the indicated peptides and boosted on days 21 and 42 following the first injection. Splenocytes from immunized animals were harvested on day 63 post immunization, re-stimulated with the native gp100-154 peptide for 5 days, and tested for CTL activity in a standard chromium release assay using target cells pulsed with gp100-154 peptide.
Furthermore, CTL responses were assessed in HLA-A2/K^b transgenic mice (Sherman strain) following s.c. immunization with gp100-154 peptide alone, conjugated to hPER1 or AntpHD with or without linker FVYVW. Mice were boosted on days 21 and 42 and splenocytes from vaccinated animals were harvested on day 63 and tested for CTL activity after 5 days of restimulation in vitro.

C57BL/6 mice [4] = assay: Immunization with […] conjugates, CTL assay (FIGS. 7, 9, 10); type: in vivo, mouse; conditions: for cytotoxicity levels, adjuvant free immunization: s.c. without adjuvant; for CTL responses / cytotoxicity, Tat versus hPER1 conjugates: s.c., DEVWEL linker, FIG. 7
Description: FIG. 7. In vivo induction of T cell responses using hPER1 or Tat peptides conjugated to […] epitope. Mice were immunized subcutaneously with […] peptide associated to either Tat or hPER1 with the DEVWEL linker sequence. Results shown in this figure represent the mean value of 4 individual mice for each group.
FIG. 9. […] C57BL/6 mice were immunized intradermally with different doses of hPER1-SGQL-[…] with or without helper peptide.
FIG. 10. In vivo induction of immunity following adjuvant free peptide immunization with hPER1 associated to […] in the presence of different linker sequences.
as §2

[5] = system: Splenocytes from C57BL/6 mice; assay: In vitro analysis of OVA ([…]) peptide presentation, IFN-γ ELISPOT (FIG. 11); type: cell-based, mouse; conditions: 10 ug/ml pulse 1 hour; for stimulatory activity of pulsed cells after 30 hours: 30 hours incubation, IFN-γ ELISPOT
Description: FIG. 11. In vitro analysis of OVA ([…]) peptide presentation. Splenocytes from C57BL/6 mice were pulsed with 10 ug/ml of the indicated peptides for 1 hour at 37° C., washed, and incubated for 0, 4, 8, 24, or 30 hours. Cells pulsed with transduction peptides were pre-incubated with a bGAL peptide to block any cell surface binding. The cells were then tested by ELISPOT for their ability to induce IFN-γ secretion from […]-specific T cells. Spot counts greater than 300/well could not be counted. *=sample not tested.
To further study the effect of coupling CTL epitopes to the hPER1 transduction domain, the following in vitro assay was developed to assess the kinetics of antigen presentation following incubation of cells with peptide. In FIG. 11, splenocytes from C57BL/6 mice were incubated with different OVA-based peptides for 1 hour at 37° C. The cells were then washed to remove any residual free peptide, and incubated in culture medium at 37° C. for 0, 4, 8, 24 or 30 hours. The cells were then tested for their ability to stimulate IFN-γ production from […]-specific T cells by ELISPOT.

[6] = system: PBMCs from an HLA-A2-positive patient; assay: In vitro induction of human CTL in PBMC culture, chromium release assay; type: cell-based; conditions: repeated in vitro stimulation, day 42, C1R-A2 target cells pulsed with 280-9V
Description: FIG. 2. In vitro induction of human T cell responses using a hPER1 conjugate peptide.
Peripheral blood mononuclear cells (PBMCs) from an HLA-A2-positive patient were cultured in the presence of IL-2 (50 U/ml), IL-7 (10 ng/ml), LPS (10 μg/ml), CD40-ligand expressing 3T3 cells, and peptide (10 μg/ml of 280-9V or hPER1-280-9V). On days 11, 22, and 32 the cells were restimulated by culturing in the presence of IL-2 (50 U/ml) and IL-7 (10 ng/ml) and autologous, CD40-ligand activated PBMCs pulsed with peptide (100 μg/ml of 280-9V or hPER1-280-9V) for 3 hours.

P815-A2/K^b cells = assay: Sensitization of P815-A2/K^b target cells for CTL lysis, chromium release assay; type: cell-based, mouse
Description: as §1
Further, ^51Cr-labeled P815-A2/K^b cells were pulsed with 10^−6 g/ml 280-9V peptide ([…]) or hPER1-280-9V ([…]) or were left untreated (no peptide) and incubated for 1 hour at 37° C. The cells were then washed and tested for CTL recognition in a standard 4-hour chromium release assay, using T cells obtained from the spleens of HLA-A2/K^b transgenic mice immunized with 280-9V peptide in incomplete Freund's adjuvant. Where indicated, 5 μg/ml brefeldin A (BFA) was included in the assay, to block the surface expression of nascent class I MHC molecules. […] The level of CTL killing is reduced if the hPER1-280-9V-pulsed target cells are treated with brefeldin A, which blocks the intracellular transport of newly synthesized MHC molecules.

[7] = system: HLA-A2/K^b transgenic mice; assay: s.c. immunization without adjuvant, CTL assay (FIG. 3B); type: in vivo, mouse; conditions: 100 μg s.c. plus T-helper peptide, no adjuvant, boosts days 14 and 28
Description: Mice were similarly boosted on days 14 and 28. […] Average responses from each group are shown.

[8] = grades − to + + + +, key not given

Substance: ASNENMETM [reference compound]
- stimulatory activity of pulsed cells after 24 hours of incubation ([1]; IFN-γ ELISPOT with NP-specific T cells): shows a loss in activity

Substance: GRRHHRRSKAKRSRASNENMETM [hPER1, no linker, flu NP366-374]
- sensitization of RMA target cells for CTL-mediated lysis (RMA cells): can be sensitized for CTL-mediated lysis
- duration of ability of pulsed cells to stimulate T cells [1]: retain their ability to stimulate T cells out to five days

Substance: GYGRKKRRQRRR-LEQLE-SIINFEKL
- CTL responses after peptide-pulsed DC vaccine (C57BL/6 mice [2]): less immunogenic than TAT-SIINFEKL without linker

Substance: KTWGQYWQV [reference compound]
- CTL responses / cytotoxicity at three weeks and three months (A2/Kb mice; listed as 154): did not induce cytotoxicity at either three weeks or three months; also recorded: does not generate significant CTL responses

Substance: RQIKIWFQNRRMKWKKFVYVWKTWGQYWQV [AntpHD, linker FVYVW, gp100-154]
- Immunogenicity in mice (mice; [8]): + + + +

Substance: RQIKIWFQNRRMKWKKLKTWGQYWQV [AntpHD, linker L, gp100-154]
- Immunogenicity in mice (mice; [8]): + + +

Substance: RQIKIWFQNRRMKWKKTWVGQYWQV
- CTL responses against gp100-154 [3]: a weak response was observed

Substance: RRHHRRSKAKRSRDEVWELSIINFEKL [hPER1, linker DEVWEL, OVA]
- cytotoxicity levels, adjuvant free immunization (C57BL/6 mice [4]; FIG. 10): comparable
- CTL responses / cytotoxicity, Tat versus hPER1 conjugates (C57BL/6 mice [4]): gave the best CTL responses as compared to the positive control SIINFEKL in IFA
- CTL responses / cytotoxicity, Tat versus hPER1 conjugates (C57BL/6 mice [4]; listed as hPER1-DEVWEL-SIINFEKL): induced a greater level of cytotoxicity as compared to Tat-DEVWEL-SIINFEKL at all E:T ratios tested
- Immunogenicity in mice (mice; [8]): + + + +

Substance: RRHHRRSKAKRSRFVYVWKTWGQYWQV [hPER1, linker FVYVW, gp100-154] [listing 1 of 2 here]
- Immunogenicity in mice (mice; mouse, in vivo): + + + +

Substance: RRHHRRSKAKRSRFVYVWKTWGQYWQV [hPER1, linker FVYVW, gp100-154] [listing 2 of 2 here]
- CTL responses by different routes of immunization (A2/Kb mice; 50 nmol peptide plus 50 nmol helper peptide, intradermal, subcutaneous or intranasal): can be generated through different routes of immunization
- cytotoxicity at 10 nmoles without helper peptide (A2/Kb mice; intranasal, 10 nmoles, absence of helper peptide): does not induce significant cytotoxicity
- T cell cytotoxicity, without helper peptide (A2/Kb mice; intranasal, in the absence of helper peptide): induced much lower levels of cytotoxicity
- T cell cytotoxicity, with helper peptide (A2/Kb mice; intranasal, in the presence of helper CD4 hepatitis B peptide): induced significant T cell cytotoxicity
- CTL responses / cytotoxicity at three weeks and three months (A2/Kb mice): induced cytotoxicity that was detectable for at least three months
- mice with long-term T cell responses (A2/Kb mice; s.c., 3 months, 4 mice/group): ¾
- mice with short-term T cell responses (A2/Kb mice; s.c., 3 weeks, 4 mice/group): 4/4

Substance: RRHHRRSKAKRSRFVYVWSIINFEKL [hPER1, linker FVYVW, OVA]
- cytotoxicity levels, adjuvant free immunization (C57BL/6 mice [4]; FIG. 10): comparable
- Immunogenicity in mice (mice; [8]): + + + +

Substance: RRHHRRSKAKRSRFVYVWSVYDFFVWL [hPER1, linker FVYVW, TRP-2]
- Immunogenicity in mice (mice; [8]): + + +

Substance: RRHHRRSKAKRSRLSVYDFFVWL [hPER1, linker L, TRP2]
- Immunogenicity in mice (mice; [8]): + +

Substance: RRHHRRSKAKRSRRGVQIASNENMETM [hPER1, linker RGVQI, flu NP366-374]
- duration of ability of pulsed cells to stimulate T cells [1]: retain their ability to stimulate T cells out to five days

Substance: RRHHRRSKAKRSRSGQLSIINFEKL [hPER1, linker SGQL, OVA]
- T cell responses without helper peptide at higher peptide dose (C57BL/6 mice [4]; intradermal, different doses, absence of helper peptide, FIG. 9): can induce T cell responses in mice
- stimulatory activity of pulsed cells after 30 hours [5]: no reduction in activity

Substance: RRHHRRSKAKRSRSIINFEKL [hPER1, no linker, OVA]
- CTL responses after peptide-pulsed DC vaccine (C57BL/6 mice [2]): generated a stronger response than either DCs pulsed with native SIINFEKL peptide or hPER1-LEQLE-SIINFEKL

Substance: RRHHRRSKAKRSRSVYDFFVWL [hPER1, no linker, TRP-2]
- Immunogenicity in mice (mice; [8]): + +

Substance: RRHHRRSKAKRSRYLEPGPVTV [hPER1-280-9V]
- induction of 280-9V-specific human CTLs [6]: can be induced
- level of CTL killing of peptide-pulsed target cells treated with brefeldin A (P815-A2/K^b cells; 5 μg/ml brefeldin A in the assay): reduced
- sensitization of P815-A2/K^b target cells for CTL recognition (P815-A2/K^b cells; 10^−6 g/ml peptide, 1 hour at 37° C., 4-hour chromium release): can be sensitized
- peptide-specific CTL responses [7]: can be induced

Substance: SIINFEKL [reference compound]
- cytotoxicity levels, peptide in IFA (C57BL/6 mice [4]; administered with incomplete Fruend's adjuvant, FIG. 10): comparable
- incubation time by which pulsed cells lose their stimulatory capacity ([5]; IFN-γ ELISPOT with SIINFEKL-specific T cells): ≤ 24 h

Substance: SVYDFFVWL [TRP2 peptide, unconjugated, reference compound]
- CTL responses after peptide-pulsed DC vaccine (C57BL/6 mice [2]): non immunogenic
- Immunogenicity in mice (mice; [8]): + +

Substance: YGRKKRRQRRRDEVWELSIINFEKL
- stimulatory activity of pulsed cells after 30 hours [5]: no reduction in activity
- Immunogenicity in mice (mice; mouse, in vivo): + + +
